In general, Km refers to the substrate concentration at which the rate is half of its maximum.

The test system of data set [1] is O=C[C@H](O)[C@@H](O)[C@@H](O)[C@H](O)C(=O)O. Put plainly: Michaelis-Menten characterization of the purified histidine-tagged D-galacturonic acid dehydrogenase (uro1). Type of data set: biochemical, Agrobacterium tumefaciens. The settings on record: other: purified histidine-tagged enzyme; Michaelis-Menten constant of the substrate/cofactor; pH 7.5. The procedure: (§1) The S. cerevisiae strain resulting from the Example 1 was then disintegrated by vortexing with glass beads and the yeast extract analysed for D-galacturonic acid dehydrogenase activity. In a control experiment a similar strain but with an empty plasmid was used. To assay the D-galacturonic acid dehydrogenase activity the crude cell extract was mixed with 0.5 mM NAD and 4 mM D-galacturonic acid in a 50 mM Tris pH 7.5 buffer containing 0.5 mM MgCl2. The activity was 0.12 units per mg of extracted protein. One unit is the activity that forms 1 μmol of product per minute. In the control strain no activity could be detected.
(§2) The D-galacturonic acid dehydrogenase with a histidine-tag at the N-terminal end was produced in a similar manner as in the Example 1, except that the histidine-tag was introduced by PCR. To introduce the histidine tag the following primers were used 5′-[…]-3′ (SEQ ID NO:5) in sense direction and 5′-[…]-3′ (SEQ ID NO:6) in anti-sense.
(§3) After the expression of the histidine-tagged protein in S. cerevisiae as described in the Example 1 the activity was measured as described in the Example 2. […] The histidine-tagged D-galacturonic acid dehydrogenase was then purified using a Ni-NTA-agarose (Qiagen) according to the instructions of the manufacturer. The purified enzyme gave a single band in an SDS PAGE.
(§4) The purified protein was then used to estimate the Michaelis-Menten constants.

The test system of data set [2] is O=C[C@H](O)[C@@H](O)[C@H](O)[C@H](O)C(=O)O. Described as above. Format: biochemical, Agrobacterium tumefaciens. The settings on record: other: purified histidine-tagged enzyme; Michaelis-Menten constant of the substrate/cofactor; pH 7.5. The procedure:
as §1, §2, §3, §4

In data set [3] the target is T1, D-galacturonic acid dehydrogenase (uronate dehydrogenase, EC 1.1.1.203, uro1) (Agrobacterium fabrum, UniProt Q7CRQ0).
T1 construct: histidine-tag (His6); made in house; host or cells: Saccharomyces cerevisiae CEN.PK; purified on Ni-NTA-agarose
Described as above. Format: biochemical, Agrobacterium tumefaciens. To be noted: for enzyme activity with the substrate: purified histidine-tagged protein. The method, then:
as §1, §2, §3, §4

Data set [4] has as its target T2, uronate dehydrogenase from Pseudomonas (GenBank EU377538) (Pseudomonas syringae pv. tomato, UniProt Q888H1).
T2 construct: The open reading frame was released by digestion with NcoI and SpeI; made in house; host or cells: Saccharomyces cerevisiae CEN.PK (crude cell extract)
Put plainly: Enzyme activity of uronate dehydrogenase from Pseudomonas expressed in S. cerevisiae. Format: biochemical, Pseudomonas syringae pv. tomato str. DC3000. To be noted: yeast extract, with NAD, tested as in Example 2. The method, then: as §1
The DNA coding for uronate dehydrogenase was custom-synthesised by GENEART. The codes for the same amino acid as the gene with the GenBank accession number EU377538. The DNA sequence is in the Sequence Listing SEQ ID NO: 19. It codes for the amino acid sequence SEQ ID NO:20.
The open reading frame was released by digestion with NcoI and SpeI. The resulting fragment was then ligated to the NcoI and NheI sites of the pYX212 (R&D Systems) which is a multicopy yeast expression vector with PGK1 promoter and URA3 selection marker. The resulting vector was then transfected to the S. cerevisiae strain CEN.PK as in the Example 1. The enzyme activity was then tested as in Example 2.

T1 sequence (Q7CRQ0 whole entry, added parts left off): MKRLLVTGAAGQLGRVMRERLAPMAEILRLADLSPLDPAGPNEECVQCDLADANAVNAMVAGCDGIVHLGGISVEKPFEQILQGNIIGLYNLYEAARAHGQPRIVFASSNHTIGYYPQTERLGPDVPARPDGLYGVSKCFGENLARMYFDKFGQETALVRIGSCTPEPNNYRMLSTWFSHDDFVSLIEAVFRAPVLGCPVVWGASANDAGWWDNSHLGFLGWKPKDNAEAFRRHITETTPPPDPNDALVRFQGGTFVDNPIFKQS
T2 sequence (Q888H1 whole entry): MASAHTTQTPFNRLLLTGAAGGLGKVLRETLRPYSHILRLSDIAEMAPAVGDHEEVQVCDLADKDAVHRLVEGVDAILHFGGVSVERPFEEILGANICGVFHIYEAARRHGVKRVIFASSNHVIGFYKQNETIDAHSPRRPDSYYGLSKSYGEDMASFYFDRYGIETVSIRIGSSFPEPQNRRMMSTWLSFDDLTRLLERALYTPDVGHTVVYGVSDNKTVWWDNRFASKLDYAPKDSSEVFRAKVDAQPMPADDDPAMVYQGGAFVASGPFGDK

“D-galacturonic acid dehydrogenase (uronate dehydrogenase, EC 1.1.1.203, uro1) (Agrobacterium fabrum str. C58)”: in data set [1], the Michaelis-Menten constant (Km) was determined as 500 µM and the Vmax is 124 units per mg of protein. Moreover, in data set [2], the Michaelis-Menten constant (Km) is 1100 µM and the Vmax is given as 221 units per mg of protein.
As to `O=C[C@H](O)[C@@H](O)[C@@H](O)[C@H](O)C(=O)O` [D-galacturonic acid], the “enzyme activity with the substrate” value in data set [3] is on record as “active”; in data set [4], “showed activity”.
`NC(=O)c1ccc[n+]([C@@H]2O[C@H](COP(=O)([O-])OP(=O)(O)OC[C@H]3O[C@@H](n4cnc5c(N)ncnc54)[C@H](O)[C@@H]3O)[C@@H](O)[C@H]2O)c1` [NAD]: the Km in data set [3] (purified histidine-tagged enzyme, Michaelis-Menten constant of the substrate/cofactor) is 900 µM. In addition, the Vmax in data set [3] (purified histidine-tagged enzyme, one unit forms 1 μmol of product per minute) is 145 units per mg of protein.
For `O=C[C@H](O)[C@@H](O)[C@H](O)[C@H](O)C(=O)O` [GlcUA, D-glucuronic acid], the “enzyme activity with the substrate” value in data set [3] is reported as “active”; in data set [4], “showed activity”.

These data come from patent publication US8895273B2, “Conversion of hexuronic acid to hexaric acid” (Teknologian Tutkimuskeskus VTT, priority 2008, dated 2014).
